Experimental data taken from ChEMBL document CHEMBL4680298, “2-Aryl-3-(6-trifluoromethoxy)benzo[d]thiazole-based thiazolidinone hybrids as potential anti-infective agents: Synthesis, biological evaluation and molecular docking studies” (2021).
≈ marks a conversion by molar mass, not a printed value.

Key:
Salmonella typhimurium = test: Anti-infective activity against Salmonella typhimurium ATCC 13311 assessed as reduction in bacterial growth by microdilution method; assay type: functional, Salmonella enterica subsp. enterica serovar Typhimurium; details: Salmonella enterica
Pseudomonas aeruginosa [1] = test: Anti-infective activity against Pseudomonas aeruginosa ATCC 27853 assessed as reduction in bacterial growth by microdilution method; assay type: functional
Escherichia coli [2] = test: Anti-infective activity against Escherichia coli ATCC 35210 assessed as reduction in bacterial growth by microdilution method; assay type: functional
Pseudomonas aeruginosa [3] = test: Anti-infective activity against Pseudomonas aeruginosa PAO1 assessed as reduction in bacterial growth by microdilution method; assay type: functional
Listeria monocytogenes = test: Anti-infective activity against Listeria monocytogenes NCTC 7973 assessed as reduction in bacterial growth by microdilution method; assay type: functional
Staphylococcus aureus [4] = test: Anti-infective activity against Staphylococcus aureus ATCC 6538 assessed as reduction in bacterial growth by microdilution method; assay type: functional
Staphylococcus aureus [5] = test: Anti-infective activity against methicillin resistance Staphylococcus aureus assessed as reduction in bacterial growth by microdilution method; assay type: functional
Escherichia coli [6] = test: Anti-infective activity against resistant Escherichia coli assessed as reduction in bacterial growth by microdilution method; assay type: functional

Row | SMILES | MBC (Salmonella typhimurium) | MIC (Salmonella typhimurium) | MBC (Pseudomonas aeruginosa [1]) | MIC (Pseudomonas aeruginosa [1]) | MBC (Escherichia coli [2]) | MIC (Escherichia coli [2]) | MBC (Pseudomonas aeruginosa [3]) | MIC (Pseudomonas aeruginosa [3]) | MBC (Listeria monocytogenes) | MIC (Listeria monocytogenes) | MBC (Staphylococcus aureus [4]) | MIC (Staphylococcus aureus [4]) | MBC (Staphylococcus aureus [5]) | MIC (Staphylococcus aureus [5]) | MBC (Escherichia coli [6]) | MIC (Escherichia coli [6])
1 | O=C1CSC(c2ccc(Cl)cc2Cl)N1c1nc2ccc(OC(F)(F)F)cc2s1 (racemic) | 250 µg/mL (≈ 537 µM) | 120 µg/mL (≈ 258 µM) | 500 µg/mL (≈ 1070 µM) | 250 µg/mL (≈ 537 µM) | 250 µg/mL (≈ 537 µM) | 120 µg/mL (≈ 258 µM) | 1000 µg/mL (≈ 2150 µM) | 250 µg/mL (≈ 537 µM) | 500 µg/mL (≈ 1070 µM) | 150 µg/mL (≈ 322 µM) | 500 µg/mL (≈ 1070 µM) | 150 µg/mL (≈ 322 µM) | 1000 µg/mL (≈ 2150 µM) | 500 µg/mL (≈ 1070 µM) | 500 µg/mL (≈ 1070 µM) | 250 µg/mL (≈ 537 µM)
2 | O=C1CSC(c2ccc(O)cc2)N1c1nc2ccc(OC(F)(F)F)cc2s1 (racemic) | 250 µg/mL (≈ 606 µM) | 150 µg/mL (≈ 364 µM) | 250 µg/mL (≈ 606 µM) | 120 µg/mL (≈ 291 µM) | 250 µg/mL (≈ 606 µM) | 150 µg/mL (≈ 364 µM) | 500 µg/mL (≈ 1210 µM) | 300 µg/mL (≈ 727 µM) | 750 µg/mL (≈ 1820 µM) | 500 µg/mL (≈ 1210 µM) | 750 µg/mL (≈ 1820 µM) | 500 µg/mL (≈ 1210 µM) | 500 µg/mL (≈ 1210 µM) | 250 µg/mL (≈ 606 µM) | 500 µg/mL (≈ 1210 µM) | 250 µg/mL (≈ 606 µM)
3 | O=C1CSC(c2ccc(Cl)cc2)N1c1nc2ccc(OC(F)(F)F)cc2s1 (racemic) | 250 µg/mL (≈ 580 µM) | 120 µg/mL (≈ 279 µM) | 500 µg/mL (≈ 1160 µM) | 250 µg/mL (≈ 580 µM) | 250 µg/mL (≈ 580 µM) | 120 µg/mL (≈ 279 µM) | 250 µg/mL (≈ 580 µM) | 200 µg/mL (≈ 464 µM) | 500 µg/mL (≈ 1160 µM) | 250 µg/mL (≈ 580 µM) | 500 µg/mL (≈ 1160 µM) | 250 µg/mL (≈ 580 µM) | 750 µg/mL (≈ 1740 µM) | 250 µg/mL (≈ 580 µM) | 250 µg/mL (≈ 580 µM) | 120 µg/mL (≈ 279 µM)
4 | O=C1CSC(c2ccc(F)cc2)N1c1nc2ccc(OC(F)(F)F)cc2s1 (racemic) | 250 µg/mL (≈ 603 µM) | 150 µg/mL (≈ 362 µM) | 500 µg/mL (≈ 1210 µM) | 250 µg/mL (≈ 603 µM) | 250 µg/mL (≈ 603 µM) | 150 µg/mL (≈ 362 µM) | 500 µg/mL (≈ 1210 µM) | 250 µg/mL (≈ 603 µM) | 500 µg/mL (≈ 1210 µM) | 250 µg/mL (≈ 603 µM) | 500 µg/mL (≈ 1210 µM) | 250 µg/mL (≈ 603 µM) | 500 µg/mL (≈ 1210 µM) | 250 µg/mL (≈ 603 µM) | 500 µg/mL (≈ 1210 µM) | 250 µg/mL (≈ 603 µM)
5 | CC1(C)S[C@@H]2[C@H](NC(=O)[C@H](N)c3ccccc3)C(=O)N2[C@H]1C(=O)O [AMPICILLIN] | 200 µg/mL (≈ 572 µM) | 150 µg/mL (≈ 429 µM) | 150 µg/mL (≈ 429 µM) | 100 µg/mL (≈ 286 µM) | 200 µg/mL (≈ 572 µM) | 150 µg/mL (≈ 429 µM) |  | 200 µg/mL (≈ 572 µM) | 300 µg/mL (≈ 859 µM) | 150 µg/mL (≈ 429 µM) | 300 µg/mL (≈ 859 µM) | 150 µg/mL (≈ 429 µM) |  |  |  | 200 µg/mL (≈ 572 µM)
6 | O=C1CSC(c2c(Cl)cccc2Cl)N1c1nc2ccc(OC(F)(F)F)cc2s1 (racemic) | 250 µg/mL (≈ 537 µM) | 120 µg/mL (≈ 258 µM) | 500 µg/mL (≈ 1070 µM) | 250 µg/mL (≈ 537 µM) | 250 µg/mL (≈ 537 µM) | 120 µg/mL (≈ 258 µM) | 250 µg/mL (≈ 537 µM) | 120 µg/mL (≈ 258 µM) | 500 µg/mL (≈ 1070 µM) | 250 µg/mL (≈ 537 µM) | 500 µg/mL (≈ 1070 µM) | 250 µg/mL (≈ 537 µM) | 500 µg/mL (≈ 1070 µM) | 250 µg/mL (≈ 537 µM) | 500 µg/mL (≈ 1070 µM) | 250 µg/mL (≈ 537 µM)
